Patent publication US11820758B2, “NEK6 kinase inhibitors useful for the treatment of solid tumors” (CONSIGLIO NAZIONALE DELLE RICERCHE, priority 2018, dated 2023)
Where two headings read alike, the source gives them in different places.

Assays:
PEO-1 [1] = experiment: cells; details: Homo sapiens, PEO1, 72 h, read-out: IC50 (nM ± SEM)
Description: In order to prepare the cytotoxicity experiments the cells were trypsinized, counted with NEUBAUER chamber and plated in black plate having 96 wells per line (Perkinelmer). MDA-MB231, PEO-1, COV318, SW948, NCI-H1975 and NCI-H1299, were plated at 100,000 cells/ml, HCT-15 and MCF-7 at 40,000 cells/ml, In each well of the plate 200 μl of cell suspension were added. […] Parallelly, the single curves of each drug and of C8 were performed.
After 72 h from the addition of the compounds and/or drugs, the effect on the cell growth was evaluated by using the kit ATPlite (PerkinElmer) following the manufacturer's specifications. The luminescence signal was read at the instrument ENspire (PerkElmer). For each treated line, the % of inhibition of the growth with respect to the control and IC50 was calculated with software GraphPad Prism5 Software (San Diego, CA, USA). The combination index (CI) was calculated by using the program Compusyn (downloadable from www.combosyn.com), for the analysis of the combined effects of drugs based upon the equation of Chou-Talalay (Chou-Talalay, Adv Enzyme Regul 1984; 22:27-55). CI<1, =1, and >1 designates synergism, additive effect and antagonism, respectively.
PEO-1 were plated (100,000 cells/ml) in a 96-well black plate. In each well of the plate 200 μl of cell suspension were added.

PEO-1 [2] = experiment: Cytotoxic effect of compound 8 in combination with Cisplatin in PEO-1; format: cell-based, human; details: PEO-1, 72 h; IC50 of cisplatin alone or with C8 fixed at 44 μM; read-out: IC50 (μM ± SEM)
Description: Cisplatin (Sigma-Aldrich, St. […] The luminescence signal was read at the instrument […]). […] Parallelly, the single curves of Cisplatin and compound 8 were performed. […] Pharmacol Rev. 2006; 58:621-81).

NEK6 [3] = molecular target: T1, NEK6 (Homo sapiens, UniProt Q9HC98); experiment: LANCE-Ultra NEK6 kinase assay; format: biochemical; details: for IC50: LANCE-Ultra, 4 nM NEK6, 50 nM ULight-p70 S6K peptide, 100 μM ATP, 90 min, average of 4 experiments ± SEM, read-out: IC50 of NEK6 activity inhibition; for NEK6 activity inhibition in screening: single concentration 30 μM, FIG. 1
T1 sequence (Q9HC98 whole entry): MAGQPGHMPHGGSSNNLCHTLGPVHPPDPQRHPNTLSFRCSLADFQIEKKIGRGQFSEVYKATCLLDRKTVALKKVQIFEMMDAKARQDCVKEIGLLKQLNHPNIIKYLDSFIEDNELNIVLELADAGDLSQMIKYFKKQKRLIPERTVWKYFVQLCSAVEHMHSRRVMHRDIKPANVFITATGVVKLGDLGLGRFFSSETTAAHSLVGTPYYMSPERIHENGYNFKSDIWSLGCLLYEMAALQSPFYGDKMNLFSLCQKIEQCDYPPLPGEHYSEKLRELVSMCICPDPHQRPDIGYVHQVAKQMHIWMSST
Description: FIG. 1. NEK6 activity inhibition. Bar graph representing the results of the screening of several compounds at 30 μM by using LANCE-Ultra NEK6 kinase assay (PerkinElmer) incubated with 4 nM NEK6, 50 nM ULight-p70 S6K Peptide and 100 μM ATP for 90 minutes at room temperature. As control inhibitor quercetin was used.
FIG. 2. FIG. 2 represents the molecules identified with inhibitory activity on NEK6 by using LANCE-Ultra NEK6 kinase assay (PerkinElmer). The curves represent the % of NEK6 activity depending upon the inhibitor concentration. A) The compound 8 (ZINC05007751) is capable of inhibiting the NEK6 activity with 1050=3.4±1.2 μM; B) the compound 21 (ZINC04384801) inhibits NEK6 at 1050=2.6±0.05 μM. The IC50 value derives from the average of IC50s of 4 independent experiments±SEM. Each point of the curve represents the average of a triplicate±SEM of a representative experiment.
The compounds in powder (Molport, Riga, LV-1011, Latvia) were dissolved in DMSO 100% at a stock concentration of 10 mM. The fresh compounds were tested initially at a single concentration (30 μM) with LANCE NEK6 Ultra Kinase Assays (Perkin Elmer, Monza (MB)), whereas the remaining solution was aliquoted, kept at −20° C. and used for the enzymatic inhibition curves of the selected compounds. The reaction was performed in 384-OptiPlate™-384 (PerkinElmer #6007290) white plates, by using as reagents the Europium-labeled anti-phospho-p70 S6K (Thr389) Antibody (PerkinElmer #TRF0214), ULight-p70 S6K (Thr389) (PerkinElmer #TRF0126), NEK6 (Carna, Chuo-ku, Kobe, Japan, #05-130), LANCE® Detection Buffer, 10×(PerkinElmer #CR97-100), ATP (Sigma-Aldrich, Saint Louis, U.S.A, #A2383). NEK6, ATP and the compounds were diluted in Kinase Buffer (50 mM HEPES pH 7.5, 1 mM EGTA, 10 mM MgCl2, 2 mM DTT and 0.01% Tween-20), and where necessary DMSO was added to obtain a concentration of 0.3% in the final reaction volume. For the initial screening the compounds were tested at the final concentration of 30 μM, final DMSO 0.3% in kinase buffer and incubated with 4 nM NEK6, 50 nM ULight-p70 S6K Peptide and 100 μM ATP, in a reaction volume of 10 μL for 90 minutes at room temperature. As control inhibitor quercetin (Molport #001-740-557) was used. For the enzymatic inhibition curves, the selected compounds C8 (Molport #002-933-483), C21 (Molport #000-911-820) were diluted serially (dilutions 1:2) from 30 μM to 0.9375 μM (final concentrations: 30 μM; 15 μM; 7.5 μM; 3.75; 1.875 μM; 0.9375 μM in 0.3% DMSO) and incubated under the same conditions. […] After the film removal, the signal was read at the Enspire (PerkinElmer) plate reader (excitation 320 nm and emission at 665 nm). The % of enzymatic activity of NEK6 was calculated with respect to the control (100% activity), after subtracting the white of the experiment.

NEK6 [4] = molecular target: T1, NEK6; experiment: Off-chip Mobility Shift Assay (MSA); format: biochemical; details: CDK7 peptide 1000 nM, 5 h
Description: The inhibitory activity on NEK6 of the compounds C8 and C21 was checked with the technique of Off-chip Mobility Shift Assay (MSA) (CARNA Biosciences Study ID: CBS170097, CARNA Biosciences, Kobe). […] PKR inhibitor was used as positive control. […] of solution 4× of the compounds, […] of 4× Substrate/ATP/Metal solution, and […] of 2× kinase solution were prepared with the reaction buffer (20 mM HEPES, 0.01% Triton X-100, 1 mM DTT, pH7.5), mixed and incubated in wells of polypropylene in 384-well plate for 5 hours at room temperature. Afterwards, […] of Termination Buffer (QuickScout Screening Assist MSA; Carna Biosciences) were added. One proceeded with analysing the reaction with LabChip system (Perkin Elmer), by separating and quantizing the peaks of product and substrate. The kinase reaction was then evaluated based upon the ratio (P/(P+S)) calculated based upon the heights of peak of peptides product (P) and substrate (S). The reading value of the control reaction (complete reaction mix) was placed as 0% of inhibition and the bottom value (Enzima (−)) was placed as 100% of inhibition, then the inhibition percentage of each sample was calculated. The value of IC50 was calculated by means of a logistic model at 4 parameters of the inhibition curves by adaptation to a four-parameter logistic curve.

MDA-MB-231 = experiment: Cytotoxicity (ATPlite, 72 h) on MDA-MB-231; format: cell-based, human; details: MDA-MB-231 (breast), read-out: IC50 values (μM ± SEM)
Description: (§1) The compounds C8 and C21 identified in the previous assay of enzymatic activity were tested on 8 tumour cell lines representative of different solid tumours: MDA-MB231 and MCF7 (mammary tumour; ATCC, LGC Standards S.r.L, Sesto San Giovanni, MI), PEO1 and COV318 (ovarian tumour; ECACC, Saltssbury, UK), HCT-15 and SW948 (colon tumour; ECAC and ATCC, Sesto San Giovanni, MI), NCI-H1975 and NCI-H1299, (lung tumour; ATCC). Through experiments of cytotoxicity the capability of such compounds of inhibiting the cell growth was evaluated.
(§2) The cell lines were kept in culture in 75-cm^2 average flasks in atmosphere humidified with 5% CO2/95% air in the following media: DMEM supplemented with 10% FBS, 1% Kanamycin, 1% amino acids not essential for MDA-MB231 and MCF7; RPMI 10% FBS, 1% Kanamycin, 1% amino acids not essential for COV318, NCI-H1975 and NCI-H1299, with addition of 2 mM Sodium Pyruvate for PEO-1; RPMI 20% FBS, 1% Kanamycin, 1% amino acids not essential for HCT-15; LEIBOVITZ'S L15, 10% FBS, 1% Kanamycin, 1% amino acids not essential for SW948. All reagents were purchased at Sigma-Aldrich (St. Louis, MO) if not otherwise specified.
24 h after plating the compounds were added in quadruplicate at the following concentrations: C8 (6 μM; 12 μM; 24 μM; 48 μM; 96 μM; 192 μM) and C21 (8 μM; 16 μM; 32 μM; 64 μM; 128 μM; 256 μM). […] Similarly, the compound 21 inhibits the growth by 50% at 75±12 μM.

MCF-7 = experiment: Cytotoxicity (ATPlite, 72 h) on MCF-7; format: cell-based; details: Homo sapiens, MCF7, MCF-7 (breast), read-out: IC50 values (μM ± SEM)
Description: as §1, §2
(§3) MCF-7 were plated (40,000 cells/ml) in a 96-well black plate. […] 24 h after plating the compounds were added in quadruplicate at the following concentrations: C8 (6 μM; 12 μM; 24 μM; 48 μM; 96 μM; 192 μM) and C21 (8 μM; 16 μM; 32 μM; 64 μM; 128 μM; 256 μM).

HCT-15 = experiment: Cytotoxicity (ATPlite, 72 h) on HCT-15; format: cell-based, human; details: HCT-15 (colon), read-out: IC50 values (μM ± SEM)
Description: as §1, §2
as §3, with “HCT-15” for “MCF-7”, “μM). […] The compound 21 has no inhibitory activity (IC50>100 μM), (Table 1).” for “μM).”

SW948 = experiment: Cytotoxicity (ATPlite, 72 h) on SW948; format: cell-based; details: Homo sapiens, SW948 (colon), read-out: IC50 values (μM ± SEM)
Description: as §1, §2
(§4) 24 h after plating the compounds were added in quadruplicate at the following concentrations: C8 (6 μM; 12 μM; 24 μM; 48 μM; 96 μM; 192 μM) and C21 (8 μM; 16 μM; 32 μM; 64 μM; 128 μM; 256 μM).

COV318 = experiment: Cytotoxicity (ATPlite, 72 h) on COV318; format: cell-based; details: Homo sapiens, COV318 (ovary), read-out: IC50 values (μM ± SEM)
Description: as §1, §2, §4

NCI-H1975 = experiment: Cytotoxicity (ATPlite, 72 h) on NCI-H1975; format: cell-based; details: Homo sapiens, NCI-H1975 (lung), read-out: IC50 values (μM ± SEM)
Description: as §1, §2, §4

NCI-H1299 = experiment: Cytotoxicity (ATPlite, 72 h) on NCI-H1299; format: cell-based, human; details: NCI-H1299 (lung), read-out: IC50 values (μM ± SEM)
Description: as §1, §2
24 h after plating the compounds were added in quadruplicate at the following concentrations: C8 (6 μM; 12 μM; 24 μM; 48 μM; 96 μM; 192 μM) and C21 (8 μM; 16 μM; 32 μM; 64 μM; 128 μM; 256 μM). […] The compound 21 has no inhibitory activity (IC50>100 μM), (Table 1).

PEO-1 [5] = experiment: Cytotoxicity (ATPlite, 72 h) on PEO-1; format: cell-based; details: Homo sapiens, PEO1, 72 h, PEO-1 (ovary), read-out: IC50 values (μM ± SEM)
Description: as §1, §2
24 h after plating the compounds were added in quadruplicate at the following concentrations: C8 (6 μM; 12 μM; 24 μM; 48 μM; 96 μM; 192 μM) and C21 (8 μM; 16 μM; 32 μM; 64 μM; 128 μM; 256 μM). […]

## CC(=O)O[C@H]1C(=O)[C@@]2(C)[C@H]([C@H](OC(=O)c3ccccc3)[C@]3(O)C[C@H](OC(=O)[C@H](O)[C@@H](NC(=O)c4ccccc4)c4ccccc4)C(C)=C1C3(C)C)[C@]1(OC(C)=O)CO[C@@H]1C[C@@H]2O [Paclitaxel]
PEO-1 [1]
  IC50: 7 ± 0.001 nM

## N.N.[Cl][Pt][Cl] [Cisplatin]
PEO-1 [2]
  IC50: 7.9 ± 0.65 µM

## CC1=C(C#N)C(O)=NC(=O)/C1=C\c1ccc(-c2ccccc2)o1 [C8, (5Z)-2-hydroxy-4-methyl-6-oxy-5-[(5-phenylfuran-2il)methylidene]-5,6-dihydropyridine-3-carbonitrile]
NEK6 [3]
  IC50: 3.4 ± 1.2 µM
  NEK6 activity inhibition in screening: most active
NEK6 [4]
  IC50: 13.8 µM
MDA-MB-231; Homo sapiens, MDA-MB-231, 72 h
  IC50: < 100 µM
MDA-MB-231
  IC50: 65 ± 15 µM
MCF-7
  IC50: > 100 µM
HCT-15
  IC50: 98.5 ± 0.5 µM
HCT-15; Homo sapiens, HCT-15, 72 h
  IC50: < 100 µM
SW948
  IC50: > 100 µM
COV318
  IC50: > 100 µM
NCI-H1975
  IC50: > 100 µM
NCI-H1299; Homo sapiens, NCI-H1299, 72 h
  IC50: < 100 µM
NCI-H1299
  IC50: 87.8 ± 10 µM

## Nc1nc2c(c(=O)[nH]1)C(c1ccccc1)C1=C(N2)c2ccccc2C1=O (stereo not drawn) [C21, 6-amino-2-phenyl-5,7,9-triazatetracycle[8.7.0.0^3,^8.0^11,^16]heptadeca 1(10),3(8),6,11,13,15 hexaene-4, 17-dione]
NEK6 [3]
  IC50: 2.6 ± 0.05 µM
  NEK6 activity inhibition in screening: most active
NEK6 [4]
  IC50: 49.8 µM
MDA-MB-231; Homo sapiens, MDA-MB-231, 72 h
  IC50: < 100 µM
MDA-MB-231
  IC50: 75 ± 12 µM
MCF-7
  IC50: > 100 µM
HCT-15; Homo sapiens, HCT-15, 72 h
  IC50: > 100 µM
SW948
  IC50: > 100 µM
PEO-1 [5]
  IC50: > 100 µM
COV318
  IC50: > 100 µM
NCI-H1975
  IC50: > 100 µM
NCI-H1299; Homo sapiens, NCI-H1299, 72 h
  IC50: > 100 µM
